In patent US20250230193A1, “CYCLIC COMPOUND HAVING SELECTIVE KRAS INHIBITORY EFFECT ON HRAS AND NRAS” (CHUGAI SEIYAKU KABUSHIKI KAISHA, priority 2022, published 2025):

Key:
[1] = target: GDP-bound NRAS wild-type protein (Homo sapiens, UniProt P01111); experiment: Binding to NRAS by surface plasmon resonance (SPR), Single Cycle Kinetics; details: SPR, GDP-bound NRAS wild-type vs GDP-bound KRAS wild-type
[2] = target: GDP-bound HRAS wild-type protein (Homo sapiens, UniProt P01112); experiment: Binding to HRAS by surface plasmon resonance (SPR), Single Cycle Kinetics; details: SPR, GDP-bound HRAS wild-type vs GDP-bound KRAS wild-type
GDP-bound HRAS wild-type protein, sequence (P01112 whole entry): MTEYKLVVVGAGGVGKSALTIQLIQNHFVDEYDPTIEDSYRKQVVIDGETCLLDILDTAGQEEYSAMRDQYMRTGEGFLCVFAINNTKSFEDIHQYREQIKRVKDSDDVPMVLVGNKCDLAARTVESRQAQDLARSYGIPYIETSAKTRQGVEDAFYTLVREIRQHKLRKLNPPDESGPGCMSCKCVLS

GDP-bound NRAS wild-type protein, sequence (P01111 whole entry): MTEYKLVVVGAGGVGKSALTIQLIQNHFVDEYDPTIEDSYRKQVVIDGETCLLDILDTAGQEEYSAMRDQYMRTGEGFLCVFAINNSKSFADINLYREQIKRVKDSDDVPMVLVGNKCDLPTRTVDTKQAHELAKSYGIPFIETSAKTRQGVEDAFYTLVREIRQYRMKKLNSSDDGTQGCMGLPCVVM

Row | SMILES | NRAS/KRAS (ratio of KD value with respect to NRAS to KD value with respect to KRAS) [1] | HRAS/KRAS (ratio of KD value with respect to HRAS to KD value with respect to KRAS) [2]
1 | CCO[C@@H]1C[C@H]2C(=O)NC3(CC(C)(C)C3)C(=O)N(C)[C@@H](C(CC)CC)C(=O)N(C)[C@H](C(=O)N(C)C)CC(=O)N(C)[C@@H](CC(C)C)C(=O)N[C@@H]([C@@H](C)CC)C(=O)N(C)CC(=O)N(C)[C@H]3C/C=C\CCN(C3=O)[C@@H](Cc3ccc(C(F)(F)F)cc3)C(=O)N(C)CC(=O)N[C@@H](CCc3ccc(C(F)(F)F)c(OC)c3)C(=O)N2C1 [PP2161] | AA (a compound having 20 or more is denoted as AA) | A (a compound having 10 or more and less than 20 is denoted as A)
2 | CCO[C@@H]1C[C@H]2C(=O)NC3(CC(C)(C)C3)C(=O)N(C)[C@@H](C(CC)CC)C(=O)N(C)[C@H](C(=O)N3CCCC3)CC(=O)N(C)[C@@H](C)C(=O)N[C@@H]([C@@H](C)CC)C(=O)N(C)CC(=O)N(C)[C@H]3C/C=C\CCN(C3=O)[C@@H](Cc3ccc(C(F)(F)F)cc3)C(=O)N(C)CC(=O)N[C@@H](CCc3ccc(C(F)(F)F)c(OC)c3)C(=O)N2C1 [PP2163] | A (a compound having 10 or more and less than 20 is denoted as A) | A (a compound having 10 or more and less than 20 is denoted as A)
3 | CCO[C@@H]1C[C@H]2C(=O)NC3(CC(C)(C)C3)C(=O)N(C)[C@@H](C(CC)CC)C(=O)N(C)[C@H](C(=O)N(C)C)CC(=O)N(C)[C@@H](CC3CCC3)C(=O)N[C@@H]([C@@H](C)CC)C(=O)N(C)CC(=O)N(C)[C@H]3C/C=C\CCN(C3=O)[C@@H](Cc3ccc(C(F)(F)F)cc3)C(=O)N(C)CC(=O)N[C@@H](CCc3ccc(C(F)(F)F)c(OC)c3)C(=O)N2C1 [PP2164] | A (a compound having 10 or more and less than 20 is denoted as A) | A (a compound having 10 or more and less than 20 is denoted as A)
4 | CCO[C@@H]1C[C@H]2C(=O)NC3(CC(C)(C)C3)C(=O)N(C)[C@@H](C(CC)CC)C(=O)N(C)[C@H](C(=O)N(C)C)CC(=O)N(C)[C@@H](C(C)C)C(=O)N[C@@H]([C@@H](C)CC)C(=O)N(C)CC(=O)N(C)[C@H]3C/C=C\CCN(C3=O)[C@@H](Cc3ccc(C(F)(F)F)cc3)C(=O)N(C)CC(=O)N[C@@H](CCc3ccc(C(F)(F)F)c(OC)c3)C(=O)N2C1 [PP2165] | A (a compound having 10 or more and less than 20 is denoted as A) | A (a compound having 10 or more and less than 20 is denoted as A)
5 | CCO[C@@H]1C[C@H]2C(=O)NC3(CC(C)(C)C3)C(=O)N(C)[C@@H](C(CC)CC)C(=O)N(C)[C@H](C(=O)N(C)C)CC(=O)N(C)[C@@H](CC3CC3)C(=O)N[C@@H]([C@@H](C)CC)C(=O)N(C)CC(=O)N(C)[C@H]3C/C=C\CCN(C3=O)[C@@H](Cc3ccc(C)cc3)C(=O)N(C)CC(=O)N[C@@H](CCc3ccc(C(F)(F)F)c(OC)c3)C(=O)N2C1 [PP2166] | A (a compound having 10 or more and less than 20 is denoted as A) | A (a compound having 10 or more and less than 20 is denoted as A)
6 | CCO[C@@H]1C[C@H]2C(=O)NC3(CC(C)(C)C3)C(=O)N(C)[C@@H](C(CC)CC)C(=O)N(C)[C@H](C(=O)N3CCCC3)CC(=O)N(C)[C@@H](COC)C(=O)N[C@@H]([C@@H](C)CC)C(=O)N(C)CC(=O)N(C)[C@H]3C/C=C\CCN(C3=O)[C@@H](Cc3ccc(C)cc3)C(=O)N(C)CC(=O)N[C@@H](CCc3ccc(C(F)(F)F)c(OC)c3)C(=O)N2C1 [PP2167] | AA (a compound having 20 or more is denoted as AA) | A (a compound having 10 or more and less than 20 is denoted as A)
7 | CCO[C@@H]1C[C@H]2C(=O)NC3(CC(C)(C)C3)C(=O)N(C)[C@@H](C(CC)CC)C(=O)N(C)[C@H](C(=O)N(C)C)CC(=O)N(C)[C@@H](CC(C)C)C(=O)N[C@@H]([C@@H](C)CC)C(=O)N(C)CC(=O)N(C)[C@H]3C/C=C\CCN(C3=O)[C@@H](Cc3ccc(C)cc3)C(=O)N(C)CC(=O)N[C@@H](CCc3ccc(C(F)(F)F)c(OC)c3)C(=O)N2C1 [PP2168] | A (a compound having 10 or more and less than 20 is denoted as A) | A (a compound having 10 or more and less than 20 is denoted as A)
8 | CCO[C@@H]1C[C@H]2C(=O)NC3(CC(C)(C)C3)C(=O)N(C)[C@@H](C(CC)CC)C(=O)N(C)[C@H](C(=O)N3CCCC3)CC(=O)N(C)[C@@H](C)C(=O)N[C@@H]([C@@H](C)CC)C(=O)N(C)CC(=O)N(C)[C@H]3C/C=C\CCN(C3=O)[C@@H](Cc3ccc(C)cc3)C(=O)N(C)CC(=O)N[C@@H](CCc3ccc(C(F)(F)F)c(OC)c3)C(=O)N2C1 [PP2169] | AA (a compound having 20 or more is denoted as AA) | A (a compound having 10 or more and less than 20 is denoted as A)
9 | CCO[C@@H]1C[C@H]2C(=O)NC3(CC(C)(C)C3)C(=O)N(C)[C@@H](C(CC)CC)C(=O)N(C)[C@H](C(=O)N(C)C)CC(=O)N(C)[C@@H](CC)C(=O)N[C@@H]([C@@H](C)CC)C(=O)N(C)CC(=O)N(C)[C@H]3C/C=C\CCN(C3=O)[C@@H](Cc3ccc(C)cc3)C(=O)N(C)CC(=O)N[C@@H](CCc3ccc(C(F)(F)F)c(OC)c3)C(=O)N2C1 [PP2170] | A (a compound having 10 or more and less than 20 is denoted as A) | A (a compound having 10 or more and less than 20 is denoted as A)
10 | CCO[C@@H]1C[C@H]2C(=O)NC3(CC(C)(C)C3)C(=O)N(C)[C@@H](C(CC)CC)C(=O)N(C)[C@H](C(=O)N3CCCC3)CC(=O)N(C)[C@@H](CC)C(=O)N[C@@H]([C@@H](C)CC)C(=O)N(C)CC(=O)N(C)[C@H]3C/C=C\CCN(C3=O)[C@@H](Cc3ccc(C)cc3)C(=O)N(C)CC(=O)N[C@@H](CCc3ccc(C(F)(F)F)c(OC)c3)C(=O)N2C1 [PP2171] | A (a compound having 10 or more and less than 20 is denoted as A) | A (a compound having 10 or more and less than 20 is denoted as A)
11 | CCO[C@@H]1C[C@H]2C(=O)NC3(CC(C)(C)C3)C(=O)N(C)[C@@H](C(CC)CC)C(=O)N(C)[C@H](C(=O)N(C)C)CC(=O)N(C)[C@@H](CC3CCC3)C(=O)N[C@@H]([C@@H](C)CC)C(=O)N(C)CC(=O)N(C)[C@H]3C/C=C\CCN(C3=O)[C@@H](Cc3ccc(C)cc3)C(=O)N(C)CC(=O)N[C@@H](CCc3ccc(C(F)(F)F)c(OC)c3)C(=O)N2C1 [PP2172] | A (a compound having 10 or more and less than 20 is denoted as A) | B (a compound having 3 or more and less than 10 is denoted as B)
12 | CCO[C@@H]1C[C@H]2C(=O)NC3(CC(C)(C)C3)C(=O)N(C)[C@@H](C(CC)CC)C(=O)N(C)[C@H](C(=O)N(C)C)CC(=O)N(C)[C@@H](C(C)C)C(=O)N[C@@H]([C@@H](C)CC)C(=O)N(C)CC(=O)N(C)[C@H]3C/C=C\CCN(C3=O)[C@@H](Cc3ccc(C)cc3)C(=O)N(C)CC(=O)N[C@@H](CCc3ccc(C(F)(F)F)c(OC)c3)C(=O)N2C1 [PP2173] | A (a compound having 10 or more and less than 20 is denoted as A) | A (a compound having 10 or more and less than 20 is denoted as A)
13 | CCO[C@@H]1C[C@H]2C(=O)NC3(CC(C)(C)C3)C(=O)N(C)[C@@H](C(CC)CC)C(=O)N(C)[C@H](C(=O)N3CCCC3)CC(=O)N(C)[C@@H](COC)C(=O)N[C@@H]([C@@H](C)CC)C(=O)N(C)CC(=O)N(C)[C@H]3C/C=C\CCN(C3=O)[C@@H](Cc3ccc(C(F)(F)F)cc3)C(=O)N(C)CC(=O)N[C@@H](CCc3ccc(Cl)c(Cl)c3)C(=O)N2C1 [PP2174] | AA (a compound having 20 or more is denoted as AA) | A (a compound having 10 or more and less than 20 is denoted as A)
14 | CCC[C@H]1C(=O)N[C@@H]([C@@H](C)CC)C(=O)N(C)CC(=O)N(C)[C@H]2C/C=C\CCN(C2=O)[C@@H](Cc2ccc(C(F)(F)F)cc2)C(=O)N(C)CC(=O)N[C@@H](CCc2ccc(Cl)c(Cl)c2)C(=O)N2C[C@H](OCC)C[C@H]2C(=O)NC2(CC(C)(C)C2)C(=O)N(C)[C@@H](C(CC)CC)C(=O)N(C)[C@H](C(=O)N(C)C)CC(=O)N1C [PP2175] | AA (a compound having 20 or more is denoted as AA) | A (a compound having 10 or more and less than 20 is denoted as A)
15 | CCO[C@@H]1C[C@H]2C(=O)NC3(CC(C)(C)C3)C(=O)N(C)[C@@H](C(CC)CC)C(=O)N(C)[C@H](C(=O)N(C)C)CC(=O)N(C)[C@@H](CC(C)C)C(=O)N[C@@H]([C@@H](C)CC)C(=O)N(C)CC(=O)N(C)[C@H]3C/C=C\CCN(C3=O)[C@@H](Cc3ccc(C(F)(F)F)cc3)C(=O)N(C)CC(=O)N[C@@H](CCc3ccc(Cl)c(Cl)c3)C(=O)N2C1 [PP2176] | AA (a compound having 20 or more is denoted as AA) | A (a compound having 10 or more and less than 20 is denoted as A)
